Numbering of substitutions follows the chain as printed.
How the values were obtained:
[1] = system: TRIM24, GREB1 distal ERE, MCF7 cells; test: ChIP of TRIM24 at GREB1 ERE's; type: cell-based; settings: 10 nM estradiol, six hours
[2] = system: ERα, GREB1 distal ERE, MCF7 cells; test: ChIP of ERα at GREB1 ERE's; type: cell-based; settings: 10 nM estradiol, six hours
TRIM24 PHD-Bromo (WT) = target: T1, TRIM24 PHD-Bromo (WT) (Homo sapiens, UniProt O15164); test: ITC binding of histone peptides; settings: PHD-Bromo (bromodomain binding)
T1 sequence (O15164 824-1006): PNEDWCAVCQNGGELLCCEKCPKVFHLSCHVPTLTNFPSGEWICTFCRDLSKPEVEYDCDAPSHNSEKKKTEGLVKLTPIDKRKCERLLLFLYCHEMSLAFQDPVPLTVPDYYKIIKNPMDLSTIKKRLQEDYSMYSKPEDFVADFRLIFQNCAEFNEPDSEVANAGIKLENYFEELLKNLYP

[3] = target: T2, TRIM24 PHD-Bromo (F979A/N980A) (Homo sapiens, UniProt O15164, F979A/N980A); test: ITC binding of histone peptides
T2 sequence (O15164 824-1006 F979A/N980A): T1 sequence (O15164 824-1006) with F156A, N157A

Molecule: C[C@]12CC[C@@H]3c4ccc(O)cc4CC[C@H]3[C@@H]1CC[C@@H]2O [estradiol]
- increase of TRIM24 binding [1]: 6 fold
- increase of ERα binding [2]: 7 fold

Molecule: H3(13-32)K27ac: H3(13–32) peptide, K27ac; ITC values are those of the -Bio form
- binding affinity in words (TRIM24 PHD-Bromo (WT)): weak binding affinity

Molecule: H3(13-32)K23ac: H3(13–32) peptide bearing acetylated K23; ITC values are those of the -Bio form
- binding affinity in words [3]: loses most of the binding affinity
